# Measured values reported in PMC11249012 (Journal of Medicinal Chemistry, 2024).
# What was measured:
# 4T1 cells [1] = experiment: Cytokine and chemokine gene expression in 4T1 cells in vitro; format: cell-based, mouse; conditions: Figure 8A
# 4T1 tumors [2] = experiment: 4T1 TNBC model in vivo (primary tumor and lung metastases); set-up: species or system mouse; conditions: 4T1 model; for #Surface metastases (lung): 1,25D 0.25 μg/kg, SAHA 80 mg/kg, AM-193 0.2 mg/kg, ZG-126 high 5.0 mg/kg, vehicle 166
# Description: As 4T1 cells are aggressively metastatic, we can also assess the antimetastatic activity in the same experiment. All treatments were well tolerated, and, as in the B16-F10 model, none induced weight loss or other signs of stress over the course of the experiment (Figure 7A). Treatments reduced the primary tumor burden to varying degrees.
# The antimetastatic activity was determined by counting the number of surface lung metastases of duplicate samples using a stereomicroscope. […] This degree of efficacy is remarkable, as in previous experiments, DK-406 reduced the metastatic burden by ∼2-fold.[30]
# (§1) Finally, mice were sacrificed, and lungs of 4T1-bearing mice were removed to evaluate the efficiency of treatments on lung metastases.
# MDA-MB-231 TNBC cells = experiment: RealTime-Glo cell viability assay, MDA-MB-231 cells; format: cell-based, human; conditions: for cytotoxicity: 100 nM, alone or in combination; for IC50: Homo sapiens, RealTime-Glo, 24 h, read-out: IC50 (cytotoxicity)
# [3] = test system: macrophage infiltration into 4T1 tumors; experiment: Immunofluorescence of macrophages in 4T1 tumors (F4/80, Arg1); format: in vivo, mouse; conditions: Figure 8B
# Description: Inhibition of PD-L1 and CD80/CD86 is directly achieved through the immune checkpoint blockade of their receptors using anti-CTLA-4 and anti-PD-1 antibodies.[69],[70]
# Primary tumor tissues were fixed using 4% paraformaldehyde and subsequently dehydrated in sucrose solutions ranging from 10 to 30% for approximately 24 h each. The tissues were then embedded in base molds (Fisherbrand—#22363553) containing an optimal cutting temperature (OCT) compound (Fisher Healthcare—#4585). The tissue blocks were placed immediately on dry ice until the OCT compound solidified, and then they were stored at −80 °C. Prior to IF staining, sections of 5–10 μm were obtained using a Leica CM3050 S cryostat and SuperFrost Plus slides (Fisherbrand—#1255015). The tumor sections were then incubated with blocking buffer [phosphate-buffered saline containing 2% bovine serum albumin, 0.3% Triton X-100, 1% FBS, and 10% goat serum] for 1 h at RT. To detect macrophages in the TME, the sections were incubated with a pan-macrophage rat monoclonal antibody F4/80 (Abcam—#6640) diluted in blocking buffer overnight at 4 °C. Sixteen hours later, tissues were washed 3 times with 100 mM Tris–HCl and then incubated with a secondary goat antirat antibody (Invitrogen—#A11081) for 1 h at RT. […] Subsequently, 4′,6-diamidino-2-phenylindole (DAPI; Invitrogen—#D3571) was used to counterstain the nuclei for 5 min at RT. Finally, the slides were mounted using Fluoromount-G medium (Invitrogen—#00495802) and coverslips (Fisher Scientific—#12545E) and imaged with a Zeiss LSM 710 confocal microscope with ×20 objective. Quantification was carried out by QuPath software (version 0.3.2). F4/80+ macrophages and F4/80+ Arg1+ M2 macrophages were classified based on their fluorescence signal.
# [4] = test system: hyperacetylation of tubulin, H3K9 and H3K27; experiment: Western blot of tubulin and histone H3 hyperacetylation in 4T1 cells; format: cell-based, mouse; conditions: hybrids 10 μM, SAHA 100 nM, 6 h
# Description: The potential for compounds as HDACi’s can be rapidly tested in cells in culture by monitoring the hyperacetylation of histone H3 and tubulin. H3 acetylation is controlled by multiple class I enzymes, and the class IIb enzyme HDAC6 regulates tubulin acetylation.[36]−[39] […] (Figure 4A).
# Figure 4 Evidence for HDAC inhibition in 4T1 and 4TO7 TNBC cells. Western blots and quantification of triplicate biological replicates analyzing the effects of 1,25D (100 nM), SAHA (100 nM), and hybrids (10 μM) on hyperacetylation of tubulin (A,D), H3K9 (B,E), and H3K27 (C,F) in 4T1 (A–C) and 4TO7 cells (D–F).
# After 6 h treatments, 4T1, 4T07, or B16-F10 cells were solubilized in lysis buffer (20 mM Tris, pH 8, 150 mM NaCl, 1% Triton X-100, 3.5 mM SDS, and 13 mM deoxycholic acid), and proteins were separated on a 4–15% Tris/glycine/SDS gel (Bio-Rad). Then, the proteins were transferred to a nitrocellulose membrane, followed by blocking in 5% skim milk in Tris-buffered saline (TBS, 1×) solution. After blocking, the membranes were incubated overnight at 4 °C with the primary antibodies against acetylated tubulin (Sigma-Aldrich—#T7451), tubulin (Sigma-Aldrich—#T9026), acetyl-histone H3(Lys9) (Merck Millipore—#07-352), acetyl-histone H3 (Lys27) (Abcam—#ab4729), total histone H3 (Cell Signaling Technology (CST)—#3638), and GAPDH (Abcam—#ab8245). Then, the membranes were incubated with antimouse (CST—#7076) or antirabbit (CST—#7074) IgG HRP-linked secondary antibodies at recommended concentrations. Finally, signals were detected using Clarity ECL substrates (Bio-Rad) and a ChemiDoc Imaging System. Changes in protein levels were quantified relative to control using Image Lab software (version 6.0.1) after normalization to GAPDH. Western blot experiments were carried out three times.
# in vivo = conditions: BALB/c, mouse, ip
# 4T1 cells [5] = experiment: RealTime-Glo cell viability assay, 4T1 cells; conditions: for IC50: Mus musculus, 4T1, 24 h, read-out: IC50 (cytotoxicity)
# 4T1 tumors [6] = test system: 4T1 tumors; set-up: method as in PMID 1540948; conditions: 4T1 model, previous experiments ref 30; cited from earlier work
# [7] = test system: hyperacetylation of tubulin, H3K9 and H3K27; experiment: Western blot of tubulin and histone H3 hyperacetylation in B16-F10 cells; format: cell-based, mouse; conditions: SAHA 100 nM
# Text: B16-F10 cells are responsive to 1,25D analogues[45] and HDACi[46],[47] and are therefore widely used in preclinical studies of melanoma solid tumor growth and metastases.[48] Although curable when treated early, melanoma is fatal when invasive. The American Cancer Society projected 97,610 new invasive melanoma cases in the US in 2023 and 7990 deaths. Current treatment options include chemotherapy, surgery, immunotherapy, or single agents targeting mutated genes such as B-RAF or C-KIT.[49]
# After 6 h treatments, 4T1, 4T07, or B16-F10 cells were solubilized in lysis buffer (20 mM Tris, pH 8, 150 mM NaCl, 1% Triton X-100, 3.5 mM SDS, and 13 mM deoxycholic acid), and proteins were separated on a 4–15% Tris/glycine/SDS gel (Bio-Rad). Then, the proteins were transferred to a nitrocellulose membrane, followed by blocking in 5% skim milk in Tris-buffered saline (TBS, 1×) solution. […] Finally, signals were detected using Clarity ECL substrates (Bio-Rad) and a ChemiDoc Imaging System. Changes in protein levels were quantified relative to control using Image Lab software (version 6.0.1) after normalization to GAPDH. […]
# Figure S2. […] Quantification of the analyses of hyperacetylation in B16-F10 cells of tubulin, H3K9 and H3K27. […]
# Solubility = format: physicochemical
# VDR = target: T1, VDR (Mus musculus, UniProt P48281); experiment: Cyp24a1 gene induction (VDR agonism) in 4T1 cells; format: cell-based; set-up: endogenous in cells; conditions: Figure 2A
# T1 sequence (P48281 1-422): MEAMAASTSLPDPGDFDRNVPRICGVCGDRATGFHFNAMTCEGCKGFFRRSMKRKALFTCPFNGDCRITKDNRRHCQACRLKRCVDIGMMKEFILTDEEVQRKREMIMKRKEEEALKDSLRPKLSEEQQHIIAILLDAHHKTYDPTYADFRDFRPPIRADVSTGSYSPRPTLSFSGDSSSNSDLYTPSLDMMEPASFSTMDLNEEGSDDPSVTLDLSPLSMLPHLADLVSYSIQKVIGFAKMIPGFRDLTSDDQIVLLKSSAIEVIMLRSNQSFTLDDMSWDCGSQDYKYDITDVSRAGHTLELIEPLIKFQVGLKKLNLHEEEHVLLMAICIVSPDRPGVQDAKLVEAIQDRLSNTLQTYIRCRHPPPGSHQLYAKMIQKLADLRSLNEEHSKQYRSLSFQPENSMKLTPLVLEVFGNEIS
# Description: We first examined the effect of the modified structures on solubility. […] The bifunctionality of ZG compounds was then analyzed in a battery of assays. VDR agonism was determined by evaluating the induction of the Cyp24a1 gene. Cyp24a1 encodes the enzyme that initiates the catabolic degradation of 1,25D in a negative-feedback loop, and its gene transcription is exquisitely sensitive to the presence of the agonist-bound VDR. Agonism was assessed initially in mouse 4T1 cells and in related 4TO7 TNBC cells (Figure 2A,B). […] Apparent potencies were lower than those of DK-406 and AM-193.
# RNA extraction was performed with the FavorPrep tissue total RNA mini kit (FAVORGEN Biotech Corporation FATRK 001) as per manufacturer’s instructions. cDNA was obtained from 1 μg of RNA using 5× All-in-One RT MasterMix (Applied Biological Materials (abm) Inc. G485) and diluted 5 times. qPCR was performed with BrightGreen 2× q-PCR MasterMix (abm MasterMix-LR-XL) on a Roche LightCycler 96 system. Expression of targeted genes was normalized to 18 s.
# B16-F10 tumors = experiment: B16-F10 melanoma model in vivo; set-up: species or system mouse; conditions: C57BL/6 mice; ZG-126 5 mg/kg, AM-193 0.2 mg/kg, 1,25D 0.25 μg/kg, SAHA 80 mg/kg, gemcitabine 50 mg/kg
# Description: We were then interested in comparing the efficacy of ZG compounds and other hybrids in tumor models in vivo. We focused initially on the B16-F10 melanoma which is syngeneic with C57BL/6 mice. The efficacy of ZG-126 in vivo in this model was tested in two experiments. […] In a second experiment, we compared the antitumor efficacy of hybrids at ∼0.5 MTD doses. […] All treatments were well tolerated, and body weights were unaffected (Figure 6C).
# as §1
SMILES,#Surface metastases (lung) (4T1 tumors [2]),IC50 (MDA-MB-231 TNBC cells) [µM],MTD (in vivo) [mg/kg],IC50 (4T1 cells [5]) [µM],solubility (Solubility) [µg/mL],also measured
"C=C1/C(=C\C=C2/CCC[C@]3(C)[C@@H]([C@H](C)CCCC(C)(C)O)CC[C@@H]23)C[C@@H](O)C[C@@H]1O [1,25D, 1,25-dihydroxyvitamin D]",114,–,–,–,–,"expression of Ccl2, Ccl5, Ccl20, and Cxcl10 (4T1 cells [1]): inhibited; expression of the gene encoding interleukin-1α (4T1 cells [1]): induced; cytotoxicity (MDA-MB-231 TNBC cells): did not display significant cytotoxicity; total macrophage infiltration into 4T1 tumors (F4/80 staining) [3]: significantly reduced"
"CCC(CC)(c1ccc(OCCCCCC(=O)NO)cc1)c1ccc(OCC(O)C(C)(C)C)c(C)n1 (centres unmarked) [AM-193, reference compound]",89,0.5,0.5,0.74,–,effect on primary tumor burden (4T1 tumors [2]; AM-193 0.2 mg/kg compared with ZG-126 5 mg/kg): less efficacious than the high dose of ZG-126; tubulin acetylation [4]: highly efficacious inducer of tubulin acetylation
"CCC(CC)(c1ccc(C(=O)NCCCCCC(=O)NO)cc1)c1ccc(OCC(O)C(C)(C)C)c(C)c1 (centres unmarked) [DK-406, reference compound]",–,2.43,1,9.08,4.40,reduction of metastatic burden (4T1 tumors [6]): ~2 fold; tubulin acetylation and histone hyperacetylation [7]: induced very high levels of tubulin acetylation and histone hyperacetylation
"O=C(CCCCCCC(=O)Nc1ccccc1)NO [SAHA, reference compound]",139,–,–,–,–,"cytotoxicity (MDA-MB-231 TNBC cells): did not display significant cytotoxicity; total macrophage infiltration into 4T1 tumors (F4/80 staining) [3]: not; cytotoxicity (4T1 cells [5]; 4T1 cells, 100 nM, alone or in combination): did not display significant cytotoxicity"
"CCC(CC)(c1ccc(C(=O)NCCCCCC(=O)NO)cc1)c1ccc(OCC(O)C(C)(C)C)c(C)n1 (centres unmarked) [ZG-102, 4-(3-(5-(2-Hydroxy-3,3-dimethylbutoxy)-6-methylpyridin-2-yl)pentan-3-yl)-N-(6-(hydroxyamino)-6-oxohexyl)benzamide]",–,2.18,10,55.8,4.45,Cyp24a1 induction (VDR): did not appear to be a full agonist
"CCC(CC)(c1ccc(C(=O)NCCCC(=O)NO)cc1)c1ccc(OCC(O)C(C)(C)C)c(C)n1 (centres unmarked) [ZG-132, 4-(3-(5-(2-Hydroxy-3,3-dimethylbutoxy)-6-methylpyridin-2-yl)pentan-3-yl)-N-(4-(hydroxyamino)-4-oxobutyl)benzamide]",–,0.95,10,4.55,10.71,Cyp24a1 induction (VDR): did not appear to be a full agonist
"Nc1ccn([C@@H]2O[C@H](CO)[C@@H](O)C2(F)F)c(=O)n1 [gemcitabine, reference compound]",–,–,–,–,–,B16-F10 tumor burden (B16-F10 tumors): statistically significant reduction in tumor burden
